Earlier results as cited in paper PMC11711049 (Cancer Science, 2024).

Tests used:
[1] = system: cholangiocarcinoma; conditions: first‐line, patients with cholangiocarcinoma; cited from earlier work
[2] = system: cholangiocarcinoma with an FGFR2 gene fusion or other rearrangement; conditions: cholangiocarcinoma patients; cited from earlier work

gemcitabine and cisplatin
ORR [1]: 26% | median OS [1]: 11.7 months | median PFS [1]: 8.0 months

CCN1C(=O)N(c2c(F)c(OC)cc(OC)c2F)Cc2cnc3[nH]c(CN4CCOCC4)cc3c21 [pemigatinib, Pemigatinib]
median OS [2]: 21.1 months | median PFS [2]: 6.9 months | response rate / ORR [2]: 35.5%
